In US20240148679A1, “METHODS AND COMPOSITIONS RELATED TO TREATMENT AND PREVENTION OF CANCER BY INHIBITION OF DGAT1 AND DGAT2” (Ohio State Innovation Foundation, priority 2019, published 2024):

Legend:
[1] = test system: GBM cells; assay: GBM cell death, trypan blue counting; format: cell-based, human; details: single inhibitor, 3 days
[2] = test system: GBM cells (U251); assay: Mitochondrial morphology (TEM, MitoTracker Red); format: cell-based, human; details: inhibitor 24 hours
Experimental: (A, B) Transmission electron microscopy (TEM) analysis of the mitochondrial morphology in GBM cells (U251) treated with the DGAT1 inhibitor A-922500 (20 μg/ml) or DGAT2 inhibitor PF-06424439 (20 μg/ml) for 24 hr and shown in a or infected with shRNA-expressing lentivirus against DGAT1 for 48 hr and shown in b. Scale bar, 500 nm. Mitochondria are indicated by red arrows. Mitochondria length and loss of cristae (%) were quantified by ImageJ over 100 mitochondria in each group (mean±SEM). Statistical significance was determined by one-way ANOVA. * P<0.0001. (C, D) Representative fluorescence images of LDs (green) and mitochondria (red) in U251 cells treated with DGAT1 or DGAT2 inhibitor and shown in c or shRNA in (D) as in panels (A, B). […] The percentage of cells with tubular or fragmented mitochondria was quantified by ImageJ in more than 100 cells (mean±SEM). Statistical significance was determined by one-way ANOVA. * P<0.001. […] Lower panels show the quantification of relative basal and maximal OCR change (details please see Methods). […] Basal OCR was determined as OCR before oligomycin subtract OCR after rotenone addition, and maximal OCR was determined as OCR after FCCP subtract OCR after rotenone addition. Statistical significance was determined by one-way ANOVA. * P<0.0001. […] ROS were detected with CellROX Deep Red, and mitochondria were stained with MitoTracker Green. […]

In the case of `O=C(Nc1ccccc1)Nc1ccc(-c2ccc(C(=O)[C@@H]3CCC[C@H]3C(=O)O)cc2)cc1` [A-922500], the GBM cell death [1] is reported as “greatly induced marked GBM cell death” and the structure of mitochondria [2] is reported as “severely disrupted”.
